Measured values as given in DBAASP.
≈ marks a conversion by molar mass, not a printed value.

Legend:
Test in all cases: ≥ marks a high value that may be exact or a test limit, other limits are often not marked, values filed in µg/mL are converted to µM
[1] = test system: Acinetobacter baumannii
[2] = test system: Escherichia coli ATCC 25922
[3] = test system: Pseudomonas aeruginosa ATCC 9027
[4] = test system: Staphylococcus aureus ATCC 25923
[5] = test system: Klebsiella pneumoniae ATCC 700603
[6] = test system: Escherichia coli
[7] = test system: Escherichia coli UB1005
[8] = test system: Staphylococcus epidermidis ATCC 12228
[9] = test system: Staphylococcus aureus ATCC 29213
[10] = test system: Salmonella enterica subsp. enterica serovar Typhimurium C77-31
[11] = test system: Staphylococcus aureus
[12] = test system: Pseudomonas aeruginosa
[13] = test system: Bacillus subtilis
[14] = test system: Micrococcus luteus ATCC 9341
[15] = test system: Staphylococcus aureus ATCC 2592
[16] = test system: Bacillus subtilis ATCC 6633
[17] = test system: Staphylococcus aureus ATCC 33591
[18] = test system: Candida albicans ATCC 2002

**Q.** `CC[C@H](C)[C@H](NC(=O)[C@H](C)N)C(=O)N[C@@H](CC(C)C)C(=O)N[C@@H](CCCN=C(N)N)C(=O)N[C@@H](CCCCN)C(=O)N[C@@H](C)C(=O)N[C@H](C(=O)N[C@@H](CCCN=C(N)N)C(=O)N[C@@H](CCCN=C(N)N)C(=O)N[C@@H](CC(C)C)C(=O)N[C@H](C(=O)N[C@@H](CCCCN)C(=O)N[C@@H](CC(C)C)C(=O)N[C@H](C(=O)N[C@H](C(N)=O)C(C)C)[C@@H](C)CC)C(C)C)[C@@H](C)O` [AILRKATRRLVKLIV] was tested. Which MIC [1] did it give?
**A.** The MIC was 6.25 µM (≈ 10.9 µg/mL).

**Q.** And the MIC [2]?
**A.** Its MIC is 20 µM (≈ 35 µg/mL).

**Q.** And the MIC [3]?
**A.** The MIC was 20 µM (≈ 35 µg/mL).

**Q.** And the MIC [4]?
**A.** The MIC was > 25 µM.

**Q.** And the MIC [5]?
**A.** The MIC was > 25 µM.

**Q.** `CC(C)C[C@H](NC(=O)[C@H](CCCN=C(N)N)NC(=O)[C@H](Cc1c[nH]c2ccccc12)NC(=O)[C@H](CCCN=C(N)N)NC(=O)[C@@H](NC(=O)[C@H](CCCN=C(N)N)NC(=O)[C@H](Cc1c[nH]c2ccccc12)NC(=O)[C@H](CCCN=C(N)N)NC(=O)[C@H](CC(C)C)NC(=O)[C@H](CCCN=C(N)N)NC(=O)[C@@H](N)Cc1c[nH]c2ccccc12)[C@@H](C)O)C(=O)N[C@@H](CCCN=C(N)N)C(N)=O` [WRLRWRTRWRLR] was tested. Which MIC [6] did it give?
**A.** Its MIC is 2 µM (≈ 3.68 µg/mL).

**Q.** What about the MIC [1] of the same molecule?
**A.** The MIC was 4 µM (≈ 7.36 µg/mL).

**Q.** What about the MIC [2] of the same molecule?
**A.** Its MIC is 4 µM (≈ 7.36 µg/mL).

**Q.** And the MIC [7]?
**A.** The MIC was 4 µM (≈ 7.36 µg/mL).

**Q.** What about the MIC [8] of the same molecule?
**A.** The MIC was 2 µM (≈ 3.68 µg/mL).

**Q.** And the MIC [9]?
**A.** Its MIC is 2 µM (≈ 3.68 µg/mL).

**Q.** What about the MIC [10] of the same molecule?
**A.** The MIC was 4 µM (≈ 7.36 µg/mL).

**Q.** And the MIC [11]?
**A.** The MIC was 2 µM (≈ 3.68 µg/mL).

**Q.** What about the MIC [12] of the same molecule?
**A.** Its MIC is 16 µM (≈ 29.4 µg/mL).

**Q.** What about the MIC [4] of the same molecule?
**A.** The MIC was 2 µM (≈ 3.68 µg/mL).

**Q.** How did the MIC [6] turn out when `CC[C@H](C)[C@H](N)C(=O)N[C@@H](CC(N)=O)C(=O)N[C@@H](Cc1c[nH]c2ccccc12)C(=O)N[C@@H](CO)C(=O)N[C@@H](CCCCN)C(=O)N[C@H](C(=O)N[C@@H](Cc1ccccc1)C(=O)N[C@@H](CCC(=O)O)C(=O)N[C@@H](CCCCN)C(=O)N[C@H](C(=O)N[C@@H](CCCCN)C(=O)N[C@@H](CC(N)=O)C(=O)N[C@@H](CC(C)C)C(=O)N[C@H](C(N)=O)C(C)C)C(C)C)[C@@H](C)CC` [INWSKIFEKVKNLV] was run?
**A.** Its MIC is 12.5 µM (≈ 21.5 µg/mL).

**Q.** What about the MIC [13] of the same molecule?
**A.** The MIC was 17 µM (≈ 29.2 µg/mL).

**Q.** How did the MIC [14] turn out when `CC[C@H](C)[C@H](N)C(=O)N[C@@H](CC(C)C)C(=O)N1CCC[C@H]1C(=O)N[C@@H](Cc1c[nH]c2ccccc12)C(=O)N[C@@H](CCCCN)C(=O)N[C@@H](Cc1c[nH]c2ccccc12)C(=O)N1CCC[C@H]1C(=O)N[C@@H](Cc1c[nH]c2ccccc12)C(=O)N[C@@H](Cc1c[nH]c2ccccc12)C(=O)N1CCC[C@H]1C(=O)N[C@@H](Cc1c[nH]c2ccccc12)C(N)=O` [ILPWKWPWWPW] was run?
**A.** The MIC was 0.8 µM (≈ 1.28 µg/mL).

**Q.** Which MIC [15] does the source give for `CC[C@H](C)[C@H](NC(=O)[C@H](CCCCN)NC(=O)[C@@H]1CCCN1C(=O)[C@H](CC(C)C)NC(=O)[C@@H](NC(=O)[C@H](CO)NC(=O)CNC(=O)[C@H](CC(C)C)NC(=O)[C@H](C)NC(=O)CNC(=O)[C@H](CC(C)C)NC(=O)[C@@H](NC(=O)[C@H](CC(C)C)NC(=O)[C@@H]1CCCN1C(=O)[C@H](Cc1ccccc1)NC(=O)[C@@H](N)Cc1ccccc1)C(C)C)[C@@H](C)CC)C(=O)N[C@@H](Cc1ccccc1)C(N)=O` [FFPLVLGALGSILPKIF] here?
**A.** Its MIC is 10.9 µM (≈ 20 µg/mL).

**Q.** And the MIC [16]?
**A.** The MIC was 5.46 µM (≈ 9.99 µg/mL).

**Q.** With `CC[C@H](C)[C@@H]1NC(=O)[C@@H]2CSSC[C@@H]3NC(=O)[C@H](Cc4ccccc4)NC(=O)[C@H](CO)NC(=O)[C@H](CO)NC(=O)[C@H](C(C)C)NC(=O)[C@H](C(C)C)NC(=O)[C@@H]4CCCN4C(=O)[C@@H](NC(=O)[C@H](CCSC)NC(=O)[C@H](Cc4ccc(O)cc4)NC(=O)[C@H](CCC(=O)O)NC(=O)[C@H](CO)NC(=O)[C@H](CCCCN)NC(=O)[C@H](CC(N)=O)NC(=O)[C@H](CC(C)C)NC(=O)[C@@H](NC(=O)[C@H](CCC(=O)O)NC(=O)[C@H](CCCCN)NC(=O)[C@@H](NC(=O)[C@H](CCCCN)NC(=O)[C@H](CC(=O)O)NC(=O)[C@@H](NC(=O)[C@H](C)NC(=O)[C@H](CCC(N)=O)NC(=O)[C@H](CC(N)=O)NC(=O)[C@H](CC(C)C)NC(=O)[C@H](CCCCN)NC(=O)[C@H](CCCCN)NC(=O)[C@H](CCCCN)NC(=O)[C@H](CC(C)C)NC(=O)[C@H](CCCCN)NC(=O)[C@H](CCC(N)=O)NC(=O)CNC(=O)[C@@H](NC(=O)[C@@H](NC(=O)[C@H](CO)NC(=O)[C@@H](N)CCCCN)[C@@H](C)O)C(C)C)C(C)C)C(C)C)C(C)C)CSSC[C@H](NC(=O)[C@H](CCC(N)=O)NC(=O)CNC(=O)[C@H](CO)NC(=O)[C@H](CCCCN)NC(=O)CNC(=O)[C@H](CC(C)C)NC(=O)[C@H](CCCN=C(N)N)NC(=O)[C@H](C)NC(=O)[C@H](CSSC[C@@H](C(=O)O)NC1=O)NC(=O)[C@H](Cc1cnc[nH]1)NC(=O)[C@H](CCC(N)=O)NC(=O)[C@H](CCCCN)NC3=O)C(=O)N[C@@H](CC(=O)O)C(=O)N[C@@H](CC(C)C)C(=O)N[C@@H](CC(C)C)C(=O)N[C@@H](CCC(=O)O)C(=O)N2` [KSTVGQKLKKKLNQAVDKVKEVLNKSEYMCPVVSSFCKQHCARLGKSGQCDLLECIC] as the molecule, how does the MIC [13] read?
**A.** The MIC was 0.5 µM (≈ 3.17 µg/mL).

**Q.** Which results are given for `CC[C@H](C)[C@H](NC(=O)[C@H](CO)NC(=O)[C@H](C)NC(=O)[C@@H](NC(=O)[C@H](CCCCN)NC(=O)[C@H](CCCCN)NC(=O)[C@H](Cc1c[nH]c2ccccc12)NC(=O)[C@H](CC(N)=O)NC(=O)[C@@H](N)CO)[C@@H](C)CC)C(=O)NCC(=O)N[C@@H](CCCCN)C(=O)N[C@@H](CCC(=O)O)C(=O)N[C@H](C(=O)N[C@@H](CC(C)C)C(=O)N[C@@H](CCCCN)C(=O)N[C@@H](C)C(=O)N[C@@H](CC(C)C)C(N)=O)C(C)C` [SNWKKIASIGKEVLKAL]?
**A.** MIC [6]: 25 µM (≈ 47.1 µg/mL); MIC [13]: 30 µM (≈ 56.5 µg/mL)

**Q.** What does the source list for `CC[C@H](C)[C@H](NC(=O)[C@@H](N)CCCCN)C(=O)N[C@@H](Cc1c[nH]c2ccccc12)C(=O)N[C@@H](Cc1ccccc1)C(=O)N[C@@H](CCC(N)=O)C(=O)N[C@@H](CC(N)=O)C(=O)N[C@@H](CCCCN)C(=O)N[C@@H](CCCCN)C(=O)N[C@@H](CCSC)C(=O)N[C@@H](CCCCN)C(=O)N[C@@H](Cc1c[nH]c2ccccc12)C(=O)N[C@@H](CCCCN)C(=O)N[C@@H](CCCCN)C(N)=O` [KIWFQNKKMKWKK]?
**A.** MIC [2]: 256 µM (≈ 459 µg/mL); MIC [17]: ≥ 256 µM

**Q.** With `CC[C@H](C)[C@H](NC(=O)[C@H](CCCN=C(N)N)NC(=O)[C@@H](NC(=O)[C@@H]1CCCN1C(=O)[C@@H](NC(=O)[C@@H](NC(=O)[C@H](CCC(N)=O)NC(=O)[C@@H]1CCCN1C(=O)[C@@H](NC(=O)[C@@H](NC(=O)[C@H](Cc1cnc[nH]1)NC(=O)[C@@H]1CCCN1C(=O)[C@@H]1CCCN1C(=O)[C@@H](NC(=O)CNC(=O)CNC(=O)[C@H](C)NC(=O)[C@H](CCCCN)NC(=O)[C@H](C)N)[C@@H](C)CC)C(C)C)[C@@H](C)CC)[C@@H](C)CC)C(C)C)C(C)C)C(=O)N[C@@H](CCCN=C(N)N)C(=O)N1CCC[C@H]1C(=O)N[C@@H](CC(C)C)C(=O)N[C@@H](CS)C(=O)NCC(=O)N[C@@H](CC(N)=O)C(=O)N[C@H](C(=O)O)C(C)C` [AKAGGIPPHVIPQIVPVRIRPLCGNV] as the molecule, how does the MIC [15] read?
**A.** The MIC was 4.66 µM (≈ 12.6 µg/mL).

**Q.** What about the MIC [18] of the same molecule?
**A.** Its MIC is 9.25 µM (≈ 25 µg/mL).

**Q.** What about the MIC [2] of the same molecule?
**A.** Its MIC is 18.5 µM (≈ 50 µg/mL).

**Q.** What does the source list for `CC(C)[C@H](NC(=O)[C@H](CCCN=C(N)N)NC(=O)[C@H](Cc1c[nH]c2ccccc12)NC(=O)[C@H](CCCN=C(N)N)NC(=O)[C@@H](NC(=O)[C@H](CCCCN)NC(=O)[C@H](Cc1c[nH]c2ccccc12)NC(=O)[C@H](CCCN=C(N)N)NC(=O)[C@@H](NC(=O)[C@H](CCCN=C(N)N)NC(=O)[C@@H](N)Cc1c[nH]c2ccccc12)C(C)C)C(C)C)C(=O)N[C@@H](CCCCN)C(N)=O` [WRVRWKVRWRVK]?
**A.** MIC [6]: 1 µM (≈ 1.75 µg/mL); MIC [1]: 2.83 µM (≈ 4.96 µg/mL); MIC [2]: 4 µM (≈ 7.02 µg/mL); MIC [7]: 2 µM (≈ 3.51 µg/mL); MIC [8]: 2 µM (≈ 3.51 µg/mL); MIC [9]: 1 µM (≈ 1.75 µg/mL); MIC [10]: 2 µM (≈ 3.51 µg/mL); MIC [11]: 2 µM (≈ 3.51 µg/mL); MIC [12]: 4 µM (≈ 7.02 µg/mL); MIC [4]: 2 µM (≈ 3.51 µg/mL)
